What all share (assay type): biochemical
Experiment [1] deals with T1, PI3Kα (Homo sapiens, UniProt P42336).
T1 construct: purchased Millipore Ltd (Billerica, Mass.)
Nature of the experiment: In vitro determination of the PI3K enzyme inhibitory activity in the cell free assay (ADP-Glo Kinase Assay), PI3Kα. As to conditions: ATP 50 μM, read-out: PI3K alpha inhibition. An outline of the steps: (§1)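 Human recombinant PI3K isoforms with PI/PS lipid substrates (50 μM in 2× buffer, Tris pH 7.5, DTT) were run 60 min at room temperature. Final ATP was 50 μM for α, 100 μM for β, 30 μM for γ and 80 μM for δ. ADP formation was read by ADP-Glo luminescence, and IC50 came from a four-parameter logistic fit.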

Experiment [2] concerns the target T2, PI3Kβ (Homo sapiens, UniProt P42338).
T2 construct: purchased Millipore Ltd (Billerica, Mass.)
Nature of the experiment: In vitro determination of the PI3K enzyme inhibitory activity in the cell free assay (ADP-Glo Kinase Assay), PI3Kβ. The note with it: ATP 100 μM, read-out: PI3K beta inhibition. In a few lines: as §1
(In general: In ADP-Glo the light output rises with the ADP produced.)

In experiment [3] the target is T3, PI3Kγ (Homo sapiens, UniProt P48736).
T3 construct: purchased Millipore Ltd (Billerica, Mass.)
T3 sequence (P48736 whole entry): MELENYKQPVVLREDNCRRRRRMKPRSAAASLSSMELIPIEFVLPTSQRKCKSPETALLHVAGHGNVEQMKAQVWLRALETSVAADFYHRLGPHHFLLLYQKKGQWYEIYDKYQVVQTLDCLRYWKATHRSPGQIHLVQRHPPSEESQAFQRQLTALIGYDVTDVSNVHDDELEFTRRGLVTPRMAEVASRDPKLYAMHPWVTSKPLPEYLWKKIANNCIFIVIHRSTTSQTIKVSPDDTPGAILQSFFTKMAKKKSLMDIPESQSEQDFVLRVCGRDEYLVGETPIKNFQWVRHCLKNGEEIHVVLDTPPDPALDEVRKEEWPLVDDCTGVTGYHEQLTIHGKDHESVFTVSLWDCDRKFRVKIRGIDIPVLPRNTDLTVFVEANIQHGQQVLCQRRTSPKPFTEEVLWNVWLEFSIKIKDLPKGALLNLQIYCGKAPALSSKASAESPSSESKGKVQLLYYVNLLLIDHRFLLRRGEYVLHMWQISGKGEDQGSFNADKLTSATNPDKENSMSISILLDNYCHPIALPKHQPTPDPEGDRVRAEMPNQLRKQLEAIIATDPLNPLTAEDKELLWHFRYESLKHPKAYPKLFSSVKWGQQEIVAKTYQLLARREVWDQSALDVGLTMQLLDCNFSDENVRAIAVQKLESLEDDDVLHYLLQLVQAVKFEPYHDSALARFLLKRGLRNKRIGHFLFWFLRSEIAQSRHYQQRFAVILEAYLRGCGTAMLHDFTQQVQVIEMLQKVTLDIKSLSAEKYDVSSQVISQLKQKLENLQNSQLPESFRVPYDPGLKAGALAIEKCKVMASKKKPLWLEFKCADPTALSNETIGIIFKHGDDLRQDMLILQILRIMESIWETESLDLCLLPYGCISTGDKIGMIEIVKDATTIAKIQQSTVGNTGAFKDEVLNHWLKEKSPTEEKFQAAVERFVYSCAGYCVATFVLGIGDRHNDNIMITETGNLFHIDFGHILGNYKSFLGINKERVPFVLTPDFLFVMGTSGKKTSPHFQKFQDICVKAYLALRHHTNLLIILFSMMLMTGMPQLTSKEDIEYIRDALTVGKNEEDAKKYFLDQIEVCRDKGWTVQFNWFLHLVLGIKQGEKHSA
The experiment in a line: In vitro determination of the PI3K enzyme inhibitory activity in the cell free assay (ADP-Glo Kinase Assay), PI3Kγ. The note with it: ATP 30 μM, read-out: PI3K gamma inhibition. In a few lines:
as §1

Experiment [4] addresses T4, PI3Kδ (Homo sapiens, UniProt O00329).
T4 construct: purchased Millipore Ltd (Billerica, Mass.)
Nature of the experiment: In vitro determination of the PI3K enzyme inhibitory activity in the cell free assay (ADP-Glo Kinase Assay), PI3Kδ. The note with it: ATP 80 μM, read-out: PI3K delta inhibition. In a few lines:
as §1

Bounds are passed on as bounds.

T2 sequence (P42338 whole entry): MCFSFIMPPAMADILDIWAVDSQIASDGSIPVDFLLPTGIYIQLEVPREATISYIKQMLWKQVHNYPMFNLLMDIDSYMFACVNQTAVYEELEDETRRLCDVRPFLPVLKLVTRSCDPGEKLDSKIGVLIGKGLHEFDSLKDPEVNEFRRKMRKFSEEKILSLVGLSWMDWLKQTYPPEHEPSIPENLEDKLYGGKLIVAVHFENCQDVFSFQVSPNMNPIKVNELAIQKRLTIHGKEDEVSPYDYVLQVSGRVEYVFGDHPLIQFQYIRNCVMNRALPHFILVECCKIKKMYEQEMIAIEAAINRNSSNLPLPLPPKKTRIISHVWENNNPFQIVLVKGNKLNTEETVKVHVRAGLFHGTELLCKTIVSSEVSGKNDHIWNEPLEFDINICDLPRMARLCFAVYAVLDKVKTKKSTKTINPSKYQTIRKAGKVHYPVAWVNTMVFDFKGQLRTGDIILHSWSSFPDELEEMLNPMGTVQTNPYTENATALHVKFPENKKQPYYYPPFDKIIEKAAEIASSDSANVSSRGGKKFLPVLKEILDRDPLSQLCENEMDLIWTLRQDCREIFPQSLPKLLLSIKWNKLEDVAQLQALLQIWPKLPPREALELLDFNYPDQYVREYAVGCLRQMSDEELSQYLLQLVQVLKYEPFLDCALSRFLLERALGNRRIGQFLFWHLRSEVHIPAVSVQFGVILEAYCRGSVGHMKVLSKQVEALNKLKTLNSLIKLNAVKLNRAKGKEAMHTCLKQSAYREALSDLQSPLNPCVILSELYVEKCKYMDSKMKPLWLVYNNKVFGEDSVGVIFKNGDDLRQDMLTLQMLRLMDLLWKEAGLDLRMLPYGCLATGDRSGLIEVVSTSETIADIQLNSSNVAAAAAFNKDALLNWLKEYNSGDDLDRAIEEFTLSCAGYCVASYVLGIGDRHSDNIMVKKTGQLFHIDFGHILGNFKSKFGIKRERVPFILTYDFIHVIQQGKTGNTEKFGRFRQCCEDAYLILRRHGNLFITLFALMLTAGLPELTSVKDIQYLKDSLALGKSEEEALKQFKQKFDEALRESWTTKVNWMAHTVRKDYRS
T2 sequence (P27986 whole entry partner): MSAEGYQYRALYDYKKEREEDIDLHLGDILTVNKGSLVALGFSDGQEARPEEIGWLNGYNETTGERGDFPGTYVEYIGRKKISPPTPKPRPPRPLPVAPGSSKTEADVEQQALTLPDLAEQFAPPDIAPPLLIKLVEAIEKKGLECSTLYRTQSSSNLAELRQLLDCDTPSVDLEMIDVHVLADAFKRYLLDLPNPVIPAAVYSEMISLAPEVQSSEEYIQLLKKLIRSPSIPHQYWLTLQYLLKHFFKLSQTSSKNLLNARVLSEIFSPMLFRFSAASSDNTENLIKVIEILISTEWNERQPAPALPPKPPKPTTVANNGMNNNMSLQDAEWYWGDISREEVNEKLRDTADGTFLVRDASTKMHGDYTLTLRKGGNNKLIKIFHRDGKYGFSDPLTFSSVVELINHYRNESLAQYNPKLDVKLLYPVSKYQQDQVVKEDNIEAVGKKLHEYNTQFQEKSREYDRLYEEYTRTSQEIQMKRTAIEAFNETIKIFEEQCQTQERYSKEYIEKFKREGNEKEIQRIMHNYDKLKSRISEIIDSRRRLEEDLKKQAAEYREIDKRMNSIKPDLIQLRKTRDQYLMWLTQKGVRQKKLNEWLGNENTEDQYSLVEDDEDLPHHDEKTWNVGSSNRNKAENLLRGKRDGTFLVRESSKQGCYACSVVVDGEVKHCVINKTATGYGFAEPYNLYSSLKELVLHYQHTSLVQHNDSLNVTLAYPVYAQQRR
T4 sequence (O00329 whole entry): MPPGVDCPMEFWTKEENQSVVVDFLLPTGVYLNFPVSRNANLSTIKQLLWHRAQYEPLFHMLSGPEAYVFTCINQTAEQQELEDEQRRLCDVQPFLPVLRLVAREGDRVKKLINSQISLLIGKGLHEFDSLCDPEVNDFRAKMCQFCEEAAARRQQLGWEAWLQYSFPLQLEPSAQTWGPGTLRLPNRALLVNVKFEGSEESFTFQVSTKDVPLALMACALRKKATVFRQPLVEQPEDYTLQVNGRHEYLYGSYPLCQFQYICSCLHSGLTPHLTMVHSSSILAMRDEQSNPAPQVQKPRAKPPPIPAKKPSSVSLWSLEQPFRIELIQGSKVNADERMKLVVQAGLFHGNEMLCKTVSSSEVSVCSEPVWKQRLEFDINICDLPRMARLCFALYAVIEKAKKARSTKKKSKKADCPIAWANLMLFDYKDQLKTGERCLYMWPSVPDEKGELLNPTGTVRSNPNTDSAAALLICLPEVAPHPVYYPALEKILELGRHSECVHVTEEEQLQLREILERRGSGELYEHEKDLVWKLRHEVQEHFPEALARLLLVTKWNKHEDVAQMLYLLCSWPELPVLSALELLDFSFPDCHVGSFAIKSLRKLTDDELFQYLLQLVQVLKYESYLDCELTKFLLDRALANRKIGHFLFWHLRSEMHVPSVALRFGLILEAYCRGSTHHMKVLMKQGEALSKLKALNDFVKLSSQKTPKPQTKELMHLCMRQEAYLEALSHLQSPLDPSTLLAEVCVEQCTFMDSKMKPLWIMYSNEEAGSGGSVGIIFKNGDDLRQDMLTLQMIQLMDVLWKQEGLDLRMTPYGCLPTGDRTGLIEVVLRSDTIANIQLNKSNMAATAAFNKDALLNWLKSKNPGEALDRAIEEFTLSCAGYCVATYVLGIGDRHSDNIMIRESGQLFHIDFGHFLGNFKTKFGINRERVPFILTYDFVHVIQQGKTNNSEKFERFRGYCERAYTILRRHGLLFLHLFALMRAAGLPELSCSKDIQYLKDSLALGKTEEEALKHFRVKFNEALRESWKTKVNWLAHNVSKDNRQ
T4 sequence (P27986 whole entry partner): as the sequence (P27986 whole entry partner) above
T1 sequence (P42336 whole entry): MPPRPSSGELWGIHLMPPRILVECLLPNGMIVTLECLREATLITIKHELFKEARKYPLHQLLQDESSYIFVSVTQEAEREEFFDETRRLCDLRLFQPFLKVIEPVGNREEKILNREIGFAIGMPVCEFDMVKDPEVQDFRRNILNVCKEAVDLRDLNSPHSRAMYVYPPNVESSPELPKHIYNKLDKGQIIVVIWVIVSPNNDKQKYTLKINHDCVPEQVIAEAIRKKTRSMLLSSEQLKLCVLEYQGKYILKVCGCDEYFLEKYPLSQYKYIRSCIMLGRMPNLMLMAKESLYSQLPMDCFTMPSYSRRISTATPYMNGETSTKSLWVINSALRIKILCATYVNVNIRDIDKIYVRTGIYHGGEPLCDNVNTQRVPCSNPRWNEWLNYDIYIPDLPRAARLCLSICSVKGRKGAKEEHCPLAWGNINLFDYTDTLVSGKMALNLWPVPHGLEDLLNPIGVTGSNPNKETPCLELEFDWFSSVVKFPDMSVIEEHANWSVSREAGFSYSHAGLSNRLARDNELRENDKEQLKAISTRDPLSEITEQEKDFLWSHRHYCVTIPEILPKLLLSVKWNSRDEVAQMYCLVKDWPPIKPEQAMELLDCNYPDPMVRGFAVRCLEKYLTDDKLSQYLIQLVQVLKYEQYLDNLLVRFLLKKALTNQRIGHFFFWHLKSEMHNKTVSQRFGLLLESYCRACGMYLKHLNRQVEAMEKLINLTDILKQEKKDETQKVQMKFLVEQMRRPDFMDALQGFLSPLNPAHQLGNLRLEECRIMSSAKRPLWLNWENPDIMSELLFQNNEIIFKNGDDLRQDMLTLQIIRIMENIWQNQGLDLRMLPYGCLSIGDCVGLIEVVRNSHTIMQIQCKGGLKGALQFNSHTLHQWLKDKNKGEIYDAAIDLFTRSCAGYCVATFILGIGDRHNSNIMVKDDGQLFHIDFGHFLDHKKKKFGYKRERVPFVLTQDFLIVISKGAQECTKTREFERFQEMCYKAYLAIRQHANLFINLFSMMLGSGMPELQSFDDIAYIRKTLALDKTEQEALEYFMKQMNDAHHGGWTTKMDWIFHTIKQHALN
T1 sequence (P27986 whole entry partner): as the sequence (P27986 whole entry partner) above

Take `CC(c1cc2ccccn2c1-c1ccc(CN2CCOCC2)cn1)n1nc(-c2cc(O)cc(F)c2)c2c(N)ncnc21` (stereo not shown) [Example 108, 3-[4-amino-1-(1-{3-[5-(morpholin-4-ylmethyl)pyridin-2-yl]indolizin-2-yl}ethyl)-1H-pyrazolo[3,4-d]pyrimidin-3-yl]-5-fluorophenol]: the IC50 in experiment [1] was greater than 1000 nM; in experiment [2] it was 10 to 1000 nM; in experiment [3], greater than 1000 nM; in experiment [4], less than 10 nM.

For `CC(Nc1ncnc(N)c1C#N)c1cc2ccccn2c1-c1cccs1` (stereo not shown) [Example 37, 4-amino-6-({1-[3-(thiophen-2-yl)indolizin-2-yl]ethyl}amino)pyrimidine-5-carbonitrile], the IC50 in experiment [1] is greater than 1000 nM; in experiment [2], greater than 1000 nM; in experiment [3], greater than 1000 nM; in experiment [4], 10 to 1000 nM.

For `Nc1ncnc2c1ncn2Cc1cc2ccccn2c1` [Example 9, 9-(indolizin-2-ylmethyl)-9H-purin-6-amine], the IC50 in experiment [1], in experiment [2], in experiment [3] and in experiment [4] was greater than 1000 nM in each case.

Consider `CC(c1cc2ccccn2c1-c1ccc(=O)n(CCN2CCCC2)n1)n1nc(-c2cc(O)cc(F)c2)c2c(N)ncnc21` (stereo not shown) [Example 134, 6-(2-{1-[4-amino-3-(3-fluoro-5-hydroxyphenyl)-1H-pyrazolo[3,4-d]pyrimidin-1-yl]-ethyl}indolizin-3-yl)-2-[2-(pyrrolidin-1-yl)-ethyl]-2,3-dihydropyridazin-3-one], for which the IC50 in experiment [1] was greater than 1000 nM; in experiment [2], 10 to 1000 nM; in experiment [3] it was greater than 1000 nM; in experiment [4], less than 10 nM.

Regarding `CC(Nc1ncnc(N)c1/C=N/O)c1cc2ccccn2c1-c1ccccn1` (stereo not shown) [Example 58, 5-[(1E)-(hydroxyimino)methyl]-4-N-{1-[3-(pyridin-2-yl)indolizin-2-yl]ethyl}pyrimidine-4,6-diamine], the IC50 is greater than 1000 nM in experiment [1], 10 to 1000 nM in experiment [2], greater than 1000 nM in experiment [3] and less than 10 nM in experiment [4].

For `Nc1ncn(Cc2cc3ccccn3c2-c2cccc(F)c2)c2ncnc1-2` [Example 5, 3-{[3-(3-fluorophenyl)indolizin-2-yl]methyl}-3H-purin-6-amine], the IC50 in experiment [1], in experiment [2], in experiment [3] and in experiment [4] was greater than 1000 nM each time.

Regarding `CC(c1cc2ccccn2c1-c1ccc(C(=O)N2CCOCC2)cn1)n1nc(-c2cc(O)cc(F)c2)c2c(N)ncnc21` (stereo not shown) [Example 125, 3-[4-amino-1-(1-{3-[5-(morpholine-4-carbonyl)pyridin-2-yl]indolizin-2-yl}ethyl)-1H-pyrazolo[3,4-d]-pyrimidin-3-yl]-5-fluorophenol], the IC50 was 10 to 1000 nM in experiment [1], 10 to 1000 nM in experiment [2], 10 to 1000 nM in experiment [3] and less than 10 nM in experiment [4].

On to `CC(c1cc2cccnn2c1-c1ccccn1)n1nc(-c2cc(O)cc(F)c2)c2c(N)ncnc21` (stereo not shown) [Example 96, 3-(4-amino-1-{1-[7-(pyridin-2-yl)pyrrolo[1,2-b]pyridazin-6-yl]ethyl}-1H-pyrazolo[3,4-d]pyrimidin-3-yl)-5-fluorophenol], for which the IC50 is greater than 1000 nM in experiment [1], 10 to 1000 nM in experiment [2], greater than 1000 nM in experiment [3] and less than 10 nM in experiment [4].

On to `CC(c1cc2ccccn2c1-c1ccccn1)n1nc(-c2ccc(F)c(O)c2)c2c(N)ncnc21` (stereo not shown) [Example 71, 5-(4-amino-1-{1-[3-(pyridin-2-yl)indolizin-2-yl]ethyl}-1H-pyrazolo[3,4-d]pyrimidin-3-yl)-2-fluorophenol], for which the IC50 is greater than 1000 nM in experiment [1], greater than 1000 nM in experiment [2], 10 to 1000 nM in experiment [3] and 10 to 1000 nM in experiment [4].

On to `CC(Nc1ncnc(N)c1C=O)c1cc2ccccn2c1-c1ccccn1` (stereo not shown) [Example 47, 4-amino-6-({1-[3-(pyridin-2-yl)indolizin-2-yl]ethyl}amino)pyrimidine-5-carbaldehyde], for which the IC50 in experiment [1] was greater than 1000 nM; in experiment [2], 10 to 1000 nM; in experiment [3], greater than 1000 nM; in experiment [4], 10 to 1000 nM.

In the case of `CC(c1cc2ccccn2c1C#CCN(C)C)n1nc(-c2cc(O)cc(F)c2)c2c(N)ncnc21` (stereo not shown) [Example 131, 3-[4-amino-1-(1-{3-[3-(dimethylamino)prop-1-yn-1-yl]indolizin-2-yl}ethyl)-1H-pyrazolo[3,4-d]-pyrimidin-3-yl]-5-fluorophenol], the IC50 in experiment [1], in experiment [2], in experiment [3] and in experiment [4] was 10 to 1000 nM in each case.

For `CC(c1cc2ccccn2c1-c1ccccn1)n1nc(-c2cc(F)cc(NS(C)(=O)=O)c2)c2c(N)ncnc21` (stereo not shown) [Example 74, N-[3-(4-amino-1-{1-[3-(pyridin-2-yl)indolizin-2-yl]ethyl}-1H-pyrazolo[3,4-d]pyrimidin-3-yl)-5-fluorophenyl]methanesulfonamide], the IC50 was greater than 1000 nM in experiment [1], greater than 1000 nM in experiment [2], greater than 1000 nM in experiment [3] and 10 to 1000 nM in experiment [4].

On to `CC(=O)Nc1cccc(-c2nn(C(C)c3cc4ccccn4c3-c3ccccn3)c3ncnc(N)c23)c1` (stereo not shown) [Example 63, N-[3-(4-amino-1-{1-[3-(pyridin-2-yl)indolizin-2-yl]ethyl}-1H-pyrazolo[3,4-d]pyrimidin-3-yl)phenyl]acetamide], for which the IC50 in experiment [1], in experiment [2], in experiment [3] and in experiment [4] was greater than 1000 nM each time.

With `CC(c1cc2ccccn2c1-c1ccc(CN2CCOCC2)s1)n1nc(-c2cc(O)cc(F)c2)c2c(N)ncnc21` (stereo not shown) [Example 90, 3-[4-amino-1-(1-{3-[5-(morpholin-4-ylmethyl)thiophen-2-yl]indolizin-2-yl}ethyl)-1H-pyrazolo[3,4-d]pyrimidin-3-yl]-5-fluorophenol], the IC50 is 10 to 1000 nM in experiment [1], 10 to 1000 nM in experiment [2], 10 to 1000 nM in experiment [3] and less than 10 nM in experiment [4].

Turning to `C[C@H](c1cc2ccccn2c1-c1ccc(CN2CCOCC2)cn1)n1nc(-c2cc(O)cc(F)c2)c2c(N)ncnc21` (single isomer, unassigned) [Example 108a, 3-[4-amino-1-(1-{3-[5-(morpholin-4-ylmethyl)pyridin-2-yl]indolizin-2-yl}ethyl)-1H-pyrazolo[3,4-d]pyrimidin-3-yl]-5-fluorophenol], the IC50 is greater than 1000 nM in experiment [1], 10 to 1000 nM in experiment [2], greater than 1000 nM in experiment [3] and less than 10 nM in experiment [4].

Turning to `CC(c1cc2ccccn2c1-c1ccn(CCN2CCN(C)CC2)n1)n1nc(-c2cc(O)cc(F)c2)c2c(N)ncnc21` (stereo not shown) [Example 148, 3-{4-amino-1-[1-(3-{1-[2-(4-methylpiperazin-1-yl)ethyl]-1H-pyrazol-3-yl}indolizin-2-yl)-ethyl]-1H-pyrazolo[3,4-d]pyrimidin-3-yl}-5-fluorophenol], the IC50 in experiment [1] is 10 to 1000 nM; in experiment [2], 10 to 1000 nM; in experiment [3], 10 to 1000 nM; in experiment [4], less than 10 nM.

Turning to `CC(c1cc2ccccn2c1-c1ccncc1)n1nc(-c2cc(O)cc(F)c2)c2c(N)ncnc21` (racemic) [Example 82, 3-(4-amino-1-{1-[3-(pyridin-4-yl)indolizin-2-yl]ethyl}-1H-pyrazolo[3,4-d]pyrimidin-3-yl)-5-fluorophenol], the IC50 was greater than 1000 nM in experiment [1], 10 to 1000 nM in experiment [2], 10 to 1000 nM in experiment [3] and less than 10 nM in experiment [4].

For `CC(c1cc2ccccn2c1-c1cc(CN2CCN(C)CC2)ccn1)n1nc(-c2cc(O)cc(F)c2)c2c(N)ncnc21` (stereo not shown) [Example 116, 3-{4-amino-1-[1-(3-{4-[(4-methylpiperazin-1-yl)methyl]pyridin-2-yl}indolizin-2-yl)ethyl]-1H-pyrazolo-[3,4-d]pyrimidin-3-yl}-5-fluorophenol], the IC50 in experiment [1] is 10 to 1000 nM; in experiment [2], 10 to 1000 nM; in experiment [3], 10 to 1000 nM; in experiment [4], less than 10 nM.

Consider `CC(c1cc2ccccn2c1-c1ccccn1)n1nc(-c2cccc(F)c2)c2c(N)ncnc21` (stereo not shown) [Example 66, 3-(3-fluorophenyl)-1-{1-[3-(pyridin-2-yl)indolizin-2-yl]ethyl}-1H-pyrazolo[3,4-d]pyrimidin-4-amine], for which the IC50 in experiment [1] was greater than 1000 nM; in experiment [2], 10 to 1000 nM; in experiment [3] it was greater than 1000 nM; in experiment [4], 10 to 1000 nM.

For the molecule `Cc1ccccc1-c1c(CNc2ncnc(N)c2C#N)cc2ccccn12` [Example 26, 4-amino-6-({[3-(2-methylphenyl)indolizin-2-yl]methyl}amino)pyrimidine-5-carbonitrile], the IC50 in experiment [1] was greater than 1000 nM; in experiment [2], greater than 1000 nM; in experiment [3] it was greater than 1000 nM; in experiment [4], 10 to 1000 nM.

For the molecule `c1ccc(-c2c(CNc3ncnc4[nH]cnc34)cc3ccccn23)nc1` [Example 14, N-{[3-(pyridin-2-yl)indolizin-2-yl]methyl}-9H-purin-6-amine], the IC50 in experiment [1], in experiment [2], in experiment [3] and in experiment [4] was greater than 1000 nM each time.

Take `CC(c1cc2ccccn2c1-c1ccn(CCN2CCOCC2)c(=O)c1)n1nc(-c2cc(O)cc(F)c2)c2c(N)ncnc21` (stereo not shown) [Example 121, 4-(2-{1-[4-amino-3-(3-fluoro-5-hydroxyphenyl)-1H-pyrazolo[3,4-d]pyrimidin-1-yl]ethyl}-indolizin-3-yl)-1-[2-(morpholin-4-yl)ethyl]-1,2-dihydropyridin-2-one]: the IC50 in experiment [1] is greater than 1000 nM; in experiment [2], 10 to 1000 nM; in experiment [3] it was 10 to 1000 nM; in experiment [4] it was less than 10 nM.

For the origin of these results see patent publication US9527869B2, “Indolizine derivatives as phoshoinositide 3-kinases inhibitors” (CHIESI FARMACEUTICI S.P.A., priority 2014, dated 2016).
